This passage reports EC50 and CC50 results from patent publication US20190375708A1 (VenatoRx Pharmaceuticals, Inc., priority 2018, published 2019).

Series [1] concerns HBV replication in HepAD38 cells. Nature of the series: Anti-HBV replication assay in HepAD38 cells (QPCR of extracellular HBV DNA). In kind it is cell-based, HBV (genotype D, serotype ayw). Conditions: Hepatitis B virus, 168 h, 7 days incubation, extracellular HBV DNA by QPCR, read-out: Anti-HBV EC50. The method, boiled down: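 EC50 values reflect 50% reduction of extracellular HBV DNA, measured by QPCR after 7-day treatment of tetracycline-deprived HepAD38 cells with compound […].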

Series [2] in a line: In vitro cytotoxicity assay (MTT cell viability) in HepG2 cells. In kind it is cell-based, human. Conditions: human. The method, boiled down: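 HepG2 seeded overnight, then 7-day compound exposure (30 μM–1.0 nM, half-log steps), 37 °C. MTT 3-4 h, DMSO solubilization, A492. % of vehicle → CC50, 4-PL fit.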

Where only a bound is given, the exact number is not on record here.

Turning to `Cc1cc(NC(=O)c2c(C)c(C(=O)C(=O)N[C@@H](CO)C(N)=O)n(C)c2C)ccc1F` [Example 41, (S)-5-(2-((1-amino-3-hydroxy-1-oxopropan-2-yl)amino)-2-oxoacetyl)-N-(4-fluoro-3-methylphenyl)-1,2,4-trimethyl-1H-pyrrole-3-carboxamide], the EC50 in series [1] is less than 50 nM. The molecule also yielded a CC50 at 7 days in series [2] of 500 to 4990 nM.

With `Cc1cc(NC(=O)c2c(C)c(C(=O)C(=O)N[C@H]3CCC[C@H]3O)n3c2CCCC3)ccc1F` [Example 440, N-(4-fluoro-3-methylphenyl)-3-(2-(((1S,2R)-2-hydroxycyclopentyl)amino)-2-oxoacetyl)-2-methyl-5,6,7,8-tetrahydroindolizine-1-carboxamide], the EC50 in series [1] is 50 to 499 nM. Besides, in series [2], the CC50 at 7 days was in the range of 5000 to 30000 nM.

On to `Cc1cc(NC(=O)c2c(C)c(C(=O)C(=O)NC(C)(C)CO)n(C)c2C)ccc1F` [Example 8, N-(4-fluoro-3-methylphenyl)-5-(2-((1-hydroxy-2-methylpropan-2-yl)amino)-2-oxoacetyl)-1,2,4-trimethyl-1H-pyrrole-3-carboxamide], for which the EC50 in series [1] is less than 50 nM. The molecule also registered a CC50 at 7 days in series [2] greater than 30000 nM.

For the molecule `Cc1c(C(=O)Nc2ccnc(F)c2)c(C)n(C)c1C(=O)C(=O)NC1(C(F)(F)F)CCOCC1` [Example 271, N-(2-fluoropyridin-4-yl)-1,2,4-trimethyl-5-(2-oxo-2-((4-(trifluoromethyl)tetrahydro-2H-pyran-4-yl)amino)acetyl)-1H-pyrrole-3-carboxamide], the EC50 in series [1] is less than 50 nM. Also, the CC50 at 7 days in series [2] is greater than 30000 nM.

Regarding `Cc1cc(NC(=O)c2c(C)c(C(=O)C(=O)NCC(O)c3ccsc3)n(C)c2C)ccc1F` (centres unmarked) [Example 648, N-(4-fluoro-3-methylphenyl)-5-(2-((2-hydroxy-22-(thiophen-3-yl)ethyl)amino)-2-oxoacetyl)-1,2,4-trimethyl-1H-pyrrole-3-carboxamide], the EC50 in series [1] was less than 50 nM. Also, the CC50 at 7 days in series [2] is greater than 30000 nM.

Consider `O=C(N[C@H]1COC[C@@H]1O)C(=O)c1c(Cl)c(C(=O)Nc2ccc(F)c(Cl)c2)c2n1CCC2` [Example 563, 6-chloro-N-(3-chloro-4-fluorophenyl)-5-(2-(((3S,4R)-4-hydroxytetrahydrofuran-3-yl)amino)-2-oxoacetyl)-2,3-dihydro-1H-pyrrolizine-7-carboxamide], for which the EC50 in series [1] is less than 50 nM. In addition, the CC50 at 7 days in series [2] was 5000 to 30000 nM.

With `COc1c(C(=O)Nc2ccc(F)c(F)c2)c(C)n(C)c1C(=O)C(=O)N[C@@H]1CCC[C@@H]1O` [Example 384], the 50% effective concentration (EC50) in series [1] is greater than 1000 nM. The same molecule gave a CC50 at 7 days in series [2] greater than 30000 nM.

With `O=C(NC1(CO)CC(F)(F)C1)C(=O)c1c(Cl)c(C(=O)Nc2ccnc(F)c2)c2n1CCCC2` [Example 511, 2-chloro-3-(2-((3,3-difluoro-1-(hydroxymethyl)cyclobutyl)amino)-2-oxoacetyl)-N-(2-fluoropyridin-4-yl)-5,6,7,8-tetrahydroindolizine-1-carboxamide], the concentration for a half-maximal effect (EC50) in series [1] fell in the range of 50 to 499 nM. The CC50 at 7 days in series [2] is greater than 30000 nM.

With `Cc1c(C(=O)Nc2ccnc(Cl)c2)c(C)n(C)c1C(=O)C(=O)NC1(C)CCOCC1` [Example 326, N-(2-chloropyridin-4-yl)-1,2,4-trimethyl-5-(2-((4-methyltetrahydro-2H-pyran-4-yl)amino)-2-oxoacetyl)-1H-pyrrole-3-carboxamide], the EC50 in series [1] was less than 50 nM. In addition, the CC50 at 7 days in series [2] was greater than 30000 nM.

In the case of `Cc1cc(NC(=O)c2cc(C(=O)C(=O)N[C@H](C)C(C)(F)F)n3c2CCCC3)ccc1F` [Example 428, (R)-3-(2-((3,3-difluorobutan-2-yl)amino)-2-oxoacetyl)-N-(4-fluoro-3-methylphenyl)-5,6,7,8-tetrahydroindolizine--1 carboxamide], the EC50 in series [1] lay in the range of 50 to 499 nM. In series [2], this molecule displayed a half-maximal cytotoxic concentration (CC50) at 7 days greater than 30000 nM.

Turning to `Cc1cc(Cl)cc(NC(=O)c2c(C)c(C(=O)C(=O)N[C@H](C)C(F)(F)F)n(C)c2C)c1` [Example 686, (R)-N-(3-chloro-5-methylphenyl)-1,2,4-trimethyl-5-(2-oxo-2-((1,1,1-trifluoropropan-2-yl)amino)acetyl)-1H-pyrrole-3-carboxamide], in series [1], the EC50 is less than 50 nM. The molecule further gave a CC50 at 7 days in series [2] of 500 to 4990 nM.

In the case of `CC[C@H](C)NC(=O)C(=O)c1c(C)c(C(=O)Nc2cnc(F)c(C)c2)c2n1CCCC2` [Example 475, (S)-3-(2-(sec-butylamino)-2-oxoacetyl)-N-(6-fluoro-5-methylpyridin-3-yl)-2-methyl-5,6,7,8-tetrahydroindolizine-1-carboxamide], the EC50 in series [1] was 500 to 1000 nM. Also, the half-maximal cytotoxic concentration (CC50) at 7 days in series [2] is greater than 30000 nM.

`Cc1cc(NC(=O)c2c(Cl)c(C(=O)C(=O)NCC(C)(C)O)n3c2CCCC3)cnc1F` [Example 529, 2-chloro-N-(6-fluoro-5-methylpyridin-3-yl)-3-(2-((2-hydroxy-2-methylpropyl)amino)-2-oxoacetyl)-5,6,7,8-tetrahydroindolizine-1-carboxamide]: the EC50 in series [1] was greater than 1000 nM. The same molecule displayed a CC50 at 7 days in series [2] greater than 30000 nM.

On to `O=C(N[C@H]1C[C@H](O)C1)C(=O)c1c(Cl)c(C(=O)Nc2ccc(F)c(Cl)c2)c2n1CCCC2` [Example 531, 2-chloro-N-(3-chloro-4-fluorophenyl)-3-(2-(((1r,3r)-3-hydroxycyclobutyl)amino)-2-oxoacetyl)-5,6,7,8-tetrahydroindolizine-1-carboxamide], for which, in series [1], the EC50 fell in the range of 50 to 499 nM. The molecule also came in with a CC50 at 7 days in series [2] greater than 30000 nM.

In the case of `Cc1c(C(=O)Nc2ccnc(F)c2)c(C)n(C)c1C(=O)C(=O)NC12CC3CC(CC(O)(C3)C1)C2` [Example 188, N-(2-fluoropyridin-4-yl)-5-(2-(((1r,3s,5R,7S)-3-hydroxyadamantan-1-yl)amino)-2-oxoacetyl)-1,2,4-trimethyl-1H-pyrrole-3-carboxamide], the EC50 in series [1] lay in the range of 50 to 499 nM. Besides, the CC50 at 7 days in series [2] is greater than 30000 nM.

Take `Cc1cc(NC(=O)c2c(C)c(C(=O)C(=O)NC3(C)CCN(c4cccnn4)CC3)n(C)c2C)ccc1F` [Example 728, N-(4-fluoro-3-methylphenyl)-1,2,4-trimethyl-5-(2-((4-methyl-1-(pyridazin-3-yl)piperidin-4-yl)amino)-2-oxoacetyl)-1H-pyrrole-3-carboxamide]: the EC50 in series [1] is less than 50 nM. The molecule further had a CC50 at 7 days in series [2] greater than 30000 nM.

For the molecule `Cc1c(C(=O)Nc2ccnc(Cl)c2)c(C)n(C)c1C(=O)C(=O)N[C@H]1CC[C@@H](O)CC1` [Example 252, N-(2-chloropyridin-4-yl)-5-(2-(((1s,4s)-4-hydroxycyclohexyl)amino)-2-oxoacetyl)-1,2,4-trimethyl-1H-pyrrole-3-carboxamide], the EC50 in series [1] lay in the range of 50 to 499 nM. For the same molecule, the CC50 at 7 days in series [2] was greater than 30000 nM.

For `Cc1c(C(=O)Nc2cc(F)c(F)c(F)c2)c(C)n(C)c1C(=O)C(=O)Nc1ccc(F)cn1` [Example 319, 5-(2-((5-fluoropyridin-2-yl)amino)-2-oxoacetyl)-1,2,4-trimethyl-N-(3,4,5-trifluorophenyl)-1H-pyrrole-3-carboxamide], the EC50 in series [1] is less than 50 nM. Also, the CC50 at 7 days in series [2] lay within 5000 to 30000 nM.

Take `Cc1csc(C2(NC(=O)C(=O)c3c(C)c(C(=O)Nc4ccc(F)c(C)c4)c(C)n3C)CCCC2)n1` [Example 635, N-(4-fluoro-3-methylphenyl)-1,2,4-trimetthyl-5-(2-((1-(4-methylthiazol-2-yl)cyclopentyl)amino)-2-oxoacetyl)-1H-pyrrole-3-carboxamide]: the EC50 in series [1] is less than 50 nM. In series [2], this molecule registered a CC50 at 7 days greater than 30000 nM.

For the molecule `Cc1cc(NC(=O)c2c(C)c(C(=O)C(=O)N[C@H]3CC[C@@H](O)CC3)n(CCF)c2C)ccc1F` [Example 210, N-(4-fluoro-3-methylphenyl)-1-(2-fluoroethyl)-5-(2-(((1s,4s)-4-hydroxycyclohexyl)amino)-2-oxoacetyl)-2,4-dimethyl-1H-pyrrole-3-carboxamide], the EC50 in series [1] is less than 50 nM. This molecule came in with a CC50 at 7 days in series [2] greater than 30000 nM.

Regarding `Cc1cc(NC(=O)c2c(C)c(C(=O)C(=O)NCc3csc(N)n3)n(C)c2C)ccc1F` [Example 111, 5-(2-(((2-aminothiazol-4-yl)methyl)amino)-2-oxoacetyl)-N-(4-fluoro-3-methylphenyl)-1,2,4-trimethyl-1H-pyrrole-3-carboxamide], the EC50 in series [1] is less than 50 nM. Also, the CC50 at 7 days in series [2] is greater than 30000 nM.

On to `Cc1cc(NC(=O)c2c(C)c(C(=O)C(=O)N[C@]3(C)C[C@@H](O)C3)n(C)c2C)ccc1F` [Example 619], for which the EC50 in series [1] was less than 50 nM. The same molecule showed a CC50 at 7 days in series [2] greater than 30000 nM.

Take `Cc1cc(NC(=O)c2c(C)c(C(=O)C(=O)N[C@H](CO)[C@@H](C)O)n(C)c2C)cnc1F` [Example 185, 5-(2-(((2R,3R)-1,3-dihydroxybutan-2-yl)amino)-2-oxoacetyl)-N-(6-fluoro-5-methylpyridin-3-yl)-1,2,4-trimethyl-1H-pyrrole--3 carboxamide]: the EC50 in series [1] lay in the range of 500 to 1000 nM. Also, in series [2], the CC50 at 7 days is greater than 30000 nM.

With `COc1cc(NC(=O)C(=O)c2c(C)c(C(=O)Nc3ccc(F)c(C)c3)c(C)n2C)ccc1B(O)O` [Example 248, (4-(2-(4-((4-fluoro-3-methylphenyl)carbamoyl)-1,3,5-trimethyl-1H-pyrrol-2-yl)-2-oxoacetamido)-2-methoxyphenyl)boronic acid], the EC50 in series [1] fell in the range of 50 to 499 nM. Besides, the CC50 at 7 days in series [2] fell in the range of 5000 to 30000 nM.

As for `CCCOC1(CNC(=O)C(=O)c2c(C)c(C(=O)Nc3ccc(F)c(C)c3)c(C)n2C)CCCCC1` [Example 336, N-(4-fluoro-3-methylphenyl)-1,2,4-trimethyl-5-(2-oxo-2-(((1-propoxycyclohexyl)methyl)amino)acetyl)-1H-pyrrole-3-carboxamide], the EC50 in series [1] is less than 50 nM. In series [2], this molecule came in with a CC50 at 7 days of 5000 to 30000 nM.

A word on the EC50: it is the concentration at which the effect is half-maximal. Usually CC50 stands for the concentration giving 50% cytotoxicity.
